Legend:
[1] = system: barley powdery mildew (Blumeria graminis f. sp. hordei); experiment: Curative greenhouse trial with Opus SC125 plus adjuvant against barley powdery mildew; format: in vivo, Blumeria graminis f. sp. hordei on barley; conditions: Opus 10 g/ha, adjuvant 50 ml/ha, inoculation 2 days prior to application, assessment 14 DAT, mildew pustules per leaf
Procedure: Opus SC125, a commercial available pesticide sold by BASF, was tested to control barley powdery mildew (BPM) in a curative greenhouse trial, Azoxystrobin SC 250 in a protective trial. In each case, barley was cultivated in a substrate “Frustorder Erde” for three weeks. Each treatment was replicated 14 times. The adjuvant dose rate in each treatment was 50 ml/ha.
Inoculation of the leaves with powdery mildew (Blumeria graminis f. sp. hordei) was done 2 days prior to application to test Opus' curative action. From the stem, leaf segments were cut off with a length of 10 cm using the flag leaf (F) and 2nd leaf (F-1). Altogether, the leaves of each stem were placed on benzimidazol agar i.e. 0.5% Agar with 40 ppm benzimidazol. The concentration of Opus for the leaf application was 10 g/ha. Assessment 14 days after treatment (14 DAT) of the efficacy against powdery mildew was done by counting the mildew pustules per leaf on a length of 7 cm. The assessment of the infection rate was conducted by a trained biologist.

barley powdery mildew [2] = experiment: Protective greenhouse trial with Amistar (Azoxystrobin SC 250) plus adjuvant against barley powdery mildew; format: in vivo, barley powdery mildew on barley; conditions: azoxystrobin 5 g/ha, adjuvant 50 ml/ha, leaf segments cut 5 h after application, incubation 10 d after inoculation
Procedure: Opus SC125, a commercial available pesticide sold by BASF, was tested to control barley powdery mildew (BPM) in a curative greenhouse trial, Azoxystrobin SC 250 in a protective trial. In each case, barley was cultivated in a substrate “Frustorder Erde” for three weeks. Each treatment was replicated 14 times. The adjuvant dose rate in each treatment was 50 ml/ha. 5 h after application with the equivalent of 5 g/ha azoxystrobin, leaf segments were cut off at a length of 7 cm from the stem. The leaves of the F and F-1 leaf were placed on agar. After the inoculation, the incubation time was 10 d. The assessment of the infection rate was conducted by a trained biologist.

barley powdery mildew [3] = experiment: Performance in both trials together (curative Opus and protective Amistar); format: in vivo, barley powdery mildew on barley; conditions: for Sum of infection rates: sum of OPUS and AMISTAR infection rates; for adjuvancy effect considering the performance in both trials: assessment in words, Opus and Amistar trials
Procedure: Opus SC125, a commercial available pesticide sold by BASF, was tested to control barley powdery mildew (BPM) in a curative greenhouse trial, Azoxystrobin SC 250 in a protective trial. In each case, barley was cultivated in a substrate “Frustorder Erde” for three weeks. Each treatment was replicated 14 times. The adjuvant dose rate in each treatment was 50 ml/ha. Inoculation of the leaves with powdery mildew (Blumeria graminis f. sp. hordei) was done 2 days prior to application to test Opus' curative action. From the stem, leaf segments were cut off with a length of 10 cm using the flag leaf (F) and 2nd leaf (F-1). Altogether, the leaves of each stem were placed on benzimidazol agar i.e. 0.5% Agar with 40 ppm benzimidazol. The concentration of Opus for the leaf application was 10 g/ha. […] The assessment of the infection rate was conducted by a trained biologist. 5 h after application with the equivalent of 5 g/ha azoxystrobin, leaf segments were cut off at a length of 7 cm from the stem. The leaves of the F and F-1 leaf were placed on agar. After the inoculation, the incubation time was 10 d. The assessment of the infection rate was conducted by a trained biologist.

Substance | Infection rate of barley powdery mildew after treatment with fungicides, OPUS [1] [%] | Infection rate of barley powdery mildew after treatment with fungicides, AMISTAR (barley powdery mildew [2]) [%] | Sum of infection rates (barley powdery mildew [3]) [%] | adjuvancy effect considering the performance in both trials (barley powdery mildew [3])
C12/14 + 5EO-C8/10 Ester [Example C2] | 24 | 3 | 27 | –
C12/14 + 10EO-C8/10 Ester [Example C3] | 29 | 2 | 31 | –
C12/14 + 20EO-C8/10 Ester [Example C4] | 15 | 18 | 33 | –
Decyl + 10EO-C8/10 Ester [Example 4] | 22 | 0 | 22 | –
Decyl + 20EO-C8/10 Ester [Example 5] | 11 | 12 | 23 | –
Isoamyl + 5EO oleate [Example C5] | 17 | 17 | 34 | does not give acceptable results
Isoamyl + 10EO laurate [Example 3] | 4 | 14 | 18 | –
Isoamyl + 20EO laurate [Example 2] | 12 | 0 | 12 | –
Isoamyl + 20EO oleate [Example 1] | 7 | 0 | 7 | best adjuvancy effect
Isodecyl + 6EO-C8/10 Ester [Example C1] | 21 | 5 | 26 | –
